Assay [1] has as its system LCT gene. Description: Transcriptome microarray analysis of LCT mRNA expression in Caco-2 cells treated with PPARγ modulators. Format: cell-based, human. The note with it: vs unstimulated cells. How it is done:
Caco-2 (colonic adenocarcinoma) cells were grown in Dulbecco's Modified Eagle's Medium (DMEM, Invitrogen, Life Technologies, Cergy-Pontoise, France) supplemented with 20% foetal calf serum (FCS, Dutscher, Brumath, France), 1% penicillin-streptomycin (5 ml/l) (Invitrogen, Life technologies) and 1% non-essential amino acids (5 ml/l) (Invitrogen, Life technologies). All cell lines were cultured as confluent monolayers at 37° C. in a controlled, 5% CO2 atmosphere.
For cell stimulations, 1×10^6 cells per well were seeded in 6-well plates. Cells were serum deprived for 16 hours prior to stimulation in order to synchronize the cells. Cells were treated with GED (Nogra Pharma Ltd, Ireland), pioglitazone (1 μM, Sigma-Aldrich) or CLA (various concentrations, Sigma-Aldrich). When necessary, the DMSO vehicle (Sigma-Aldrich) was used as control. After 24 hours of stimulation, cells were washed three times with sterile PBS before RNA extraction. Cell stimulations were performed in 4 replicates for microarray analysis and in 3, 4 or 6 replicates for other stimulations.
Cells were lysed with lysis buffer (RA1, Macherey-Nagel) containing 1% β-mercaptoethanol. Total RNA was extracted with a Nucleospin RNA kit (Macherey-Nagel, Hoerdt, France). After RNAse inactivation, total RNA was cleaned of genomic DNA traces by DNAse treatment and eluted in RNAse-free, DEPC-water. The purity of the RNA was evaluated by UV spectroscopy on a Nanodrop system (Nyxor Biotech, Paris, France) from 220 to 350 nm. Before microarray experiments, RNAs were also profiled on an Agilent 2100 bioanalyzer. One μg of total RNA with a minimum concentration of 50 ng/μl was used in the microarray and qRT-PCR analysis.
Dual-colour gene expression microarrays were used to compare the cRNA from the samples. 44,000 genes were screened. The RNAs from the samples were first reverse-transcribed into cDNA (Affinity-Script RT, Agilent), which were then used as the substrate for the synthesis and amplification of cRNA by T7 RNA polymerase in the presence of cyanine 3-CTP for the CTL sample (green fluorescence) and cyanine 5-CTP for the PPAR-γ y modulator sample (red fluorescence). The two-labelled cRNAs were mixed, hybridized on the same array (G4851A Agilent 8×44K) and then scanned (with an Agilent G2505B scanner). Fluorescence was visualized after laser excitation and the relative intensities of the two fluorophores were expressed as a ratio, in order to yield the over- or under-expression status of each gene (using GeneSpring software (Agilent)). This analysis was performed for each PPAR-γ modulator.

Assay [2] concerns DR2 response element of the human LCT gene promoter. Description: Luciferase reporter gene assay with LCT promoter DR2 fragment in Caco-2 cells. It counts as cell-based. How it is done: A 321 bp genomic fragment (corresponding to the first 321 bp upstream to the transcription start site of the human lactase gene) was cloned in the pGL4-Luc reporter vector using XhoI and Hind III restriction sites introduced in “Hs-Prom-0.3 Kb sens” and “Hs-Prom-0.3 Kb anti-sens” oligonucleotides respectively. This construct and the empty vector control were transiently transfected in Caco-2 cells using Nucleofector™ Technology. Six hours post-transfection, cells were treated with PPARγ modulator for 12 hours. Luciferase activity was measured using the luciferase assay kit (Promega) in a Wallac Victor2 ™ 1420 multilabel counter (Perkin Elmer).
For orientation: In a reporter assay the amount or activity of a reporter protein is the signal.

Assay [3] has as its system LCT. The assay can be described thus: LCT mRNA expression and activity in proximal small intestine of mice after oral GED. It counts as in vivo. To be noted: weaned C57BL/6 mice, 30 mg/kg daily by gavage for 7 days. How it is done:
(§1) Expression of genes of interest was quantified by quantitative PCR (qPCR) of corresponding reverse transcribed mRNA. One μg of total RNA was reverse-transcribed into cDNA using the High Capacity cDNA Archive kit (Applied Biosystems). Amplification was performed using an ABI PRISM 7000 sequence detection system (Applied Biosystem) using Power SYBR® Green PCR master Mix (Applied Biosystem). Primer pairs for each human transcript were chosen with qPrimer depot software (at primerdepot.nci.nih.gov.). Quantification of qPCR signals was performed using ΔCt relative quantification method using GAPDH as a reference gene for human and rat samples and β-Actin for mouse samples. Values were represented in terms of relative quantity of mRNA level variation or fold increase compared to control conditions.
Lactase activity was evaluated by using a glucose oxidase method (Glucose Assay Kit, Sigma). […] For Caco-2 cells, lactase activity was determined directly from the cell monolayer. […] The reaction was stopped with 100 μl of H2SO4 and read by spectrophotometry at 450 nm. When lactase activity was determined from intestinal sample, tissue samples were first dounce-homogenized in 0.9% NaCl on crushed ice. […] For each experiment, the background attributed to the remaining glucose in the samples was measured by incubating cells or cell extracts in lactose-free buffer. […]

In assay [4] the test system is LCT. Description: LCT mRNA and LCT activity in duodenum and jejunum of rats after 5 days oral gavage. It counts as in vivo, Sprague Dawley rats. How it is done:
as §1
Lactase activity was evaluated by using a glucose oxidase method (Glucose Assay Kit, Sigma). This lactase assay is based on the measurement of the amount of glucose produced following the action of lactase by incubating samples with a lactose buffer solution (0.056 mol/l lactose in a 0.1 mol/l Na-maleate buffer). For Caco-2 cells, lactase activity was determined directly from the cell monolayer. After extensive washing, the cell monolayer was incubated with lactose buffer for one hour at 37° C. The supernatant was recovered, 50 μl were diluted with 100 μl of glucose oxidase reagent and incubated at 37° C. for 1 hour. The reaction was stopped with 100 μl of H2SO4 and read by spectrophotometry at 450 nm. When lactase activity was determined from intestinal sample, tissue samples were first dounce-homogenized in 0.9% NaCl on crushed ice. These homogenates were then diluted in 0.9% NaCl ( 1/500) and 50 μl of dilution were incubated with lactose buffer and used to determine lactase activity. For each experiment, the background attributed to the remaining glucose in the samples was measured by incubating cells or cell extracts in lactose-free buffer.
To determine whether CLA induces LCT expression and activity in vivo, Sprague Dawley rats were fed a control diet and administered either carboxymethyl cellulose (CMC; 0.5%), CLA, or GED for 5 days, after which levels of PPARγ mRNA, LCT mRNA, and LCT activity were measured. CLA was administered at 200 mg/kg/day by oral gavage, and GED was administered at 30 mg/kg/day by oral gavage (FIG. 21A).

The mark [5] stands for this setting: oral gavage 5 days, GED 30 mg/kg/day, CLA 200 mg/kg/day.

Several values for one entry are separate records, joined by “and”; a condition that tells them apart may be missing. Equal entries are not always repeated.

`COC(Cc1ccc(N)cc1)C(=O)O` (stereo not shown) [GED, 3-(4′-aminophenyl)2-methoxypropionic acid]: in assay [1] (1 mM), the “Fold Lactase RNA” value is 5.28 fold and 5.29 fold. Further, the “Fold Lactase RNA” value in assay [1] (30 mM) amounted to 8.28 fold. For the same molecule, the “luciferase activity compared to untreated cells” value in assay [2] (Caco-2 cells transfected with pGL4Luc Prom LCT construct) is “significantly increased”. In assay [2] (Caco-2 cells with luciferase construct lacking the DR2 sequence (pGL4Luc)), the luciferase activity entry is reported as “No significant change”. In assay [3], the “LCT activity in the proximal part of the small intestine” value was “significantly increased” and the “LCT expression in the proximal part of the small intestine” value is “significantly increased”. Moreover, the “LCT activity in jejunal tissue compared to CMC control” value in assay [4] (30 mg/kg/day oral gavage 5 days) is recorded as “significant increase”. Besides, in assay [4] (setting [5]), the “LCT activity in duodenal tissue compared to CMC control” value is reported as “significant increase”, the “LCT mRNA expression in duodenal tissue relative to CMC control” value is “significant increase” and the “LCT mRNA expression in jejunal tissue relative to CMC control” value is “significant increase”.

Source of the values: patent publication US20190046490A1, “METHODS OF TREATING LACTOSE INTOLERANCE” (Nogra Pharma Limited, priority 2016, published 2019).
